Measurements from patent US10881653B2, “Tricyclic compounds and their use in the treatment of cancer” (The United States of America, as represented by the …, priority 2015, dated 2021).
Counter-ions that a name gives are not always drawn.

How the values were obtained:
Assay in all cases: Cell growth inhibition GI50
Assay type in all cases: cell-based
OVCAR-8 = settings: Homo sapiens, Ovarian Cancer
Description: (§1) Cell lines were plated 2000 cells/well in 96-well black optical plates in the presence of 10% FBS media containing 25 nM selenite. The following day cells were treated with various concentrations of the compound of Example 1 (0.1% DMSO final) and incubated for 72 hrs. After the incubation Cell-Quanti Blue reagent was added to each well and incubated for additional 3 hrs. Fluorescence was read ex:530 nm/em:590 nm, and percent of viability was determined using DMSO vehicle and no cell (blank) controls.
(§2) Further results obtained in similar experiments were as indicated below (GI50 refers to concentration of compound yielding 50% growth inhibition; E denotes an exponent to the base 10).

SR = settings: Homo sapiens, Leukemia
Description: as §1, §2

OVCAR-3 = settings: Homo sapiens, Ovarian Cancer
Description: as §1, §2

UACC-257 = settings: Homo sapiens, Melanoma
Description: as §1, §2

NCI-H23 = settings: Homo sapiens, Non-Small Cell Lung Cancer
Description: as §1, §2

RPMI-8226 = settings: Homo sapiens, Leukemia
Description: as §1, §2

KM12 = settings: Homo sapiens, Colon Cancer
Description: as §1, §2

DU-145 = settings: Homo sapiens, Prostate Cancer
Description: as §1, §2

HOP-62 = settings: Homo sapiens, Non-Small Cell Lung Cancer
Description: as §1, §2

LOX IMVI = settings: Homo sapiens, Melanoma
Description: as §1, §2

SF-295 = settings: Homo sapiens, CNS Cancer
Description: as §1, §2

SF-539 = settings: Homo sapiens, CNS Cancer
Description: as §1, §2

SNB-19 = settings: Homo sapiens, CNS Cancer
Description: as §1, §2

ACHN = settings: Homo sapiens, Renal Cancer
Description: as §1, §2

HL-60(TB) = settings: Homo sapiens, Leukemia
Description: as §1, §2

COLO 205 = settings: Homo sapiens, Colon Cancer
Description: as §1, §2

PC-3 = settings: Homo sapiens, Prostate Cancer
Description: as §1, §2

A498 = settings: Homo sapiens, Renal Cancer
Description: as §1, §2

SK-OV-3 = settings: Homo sapiens, Ovarian Cancer
Description: as §1, §2

NCI-H460 = settings: Homo sapiens, Non-Small Cell Lung Cancer
Description: as §1, §2

SF-268 = settings: Homo sapiens, CNS Cancer
Description: as §1, §2

UACC-62 = settings: Homo sapiens, Melanoma
Description: as §1, §2

SK-MEL-28 = settings: Homo sapiens, Melanoma
Description: as §1, §2

MDA-MB-435 = settings: Homo sapiens, Melanoma
Description: as §1, §2

U251 = settings: Homo sapiens, U-251, CNS Cancer
Description: as §1, §2

SN12C = settings: Homo sapiens, Renal Cancer
Description: as §1, §2

HT29 = settings: Homo sapiens, HT-29, Colon Cancer
Description: as §1, §2

SW-620 = settings: Homo sapiens, Colon Cancer
Description: as §1, §2

MALME-3M = settings: Homo sapiens, Melanoma
Description: as §1, §2

OVCAR-4 = settings: Homo sapiens, Ovarian Cancer
Description: as §1, §2

HOP-92 = settings: Homo sapiens, Non-Small Cell Lung Cancer
Description: as §1, §2

MDA-MB-231/ATCC = settings: Homo sapiens, Breast Cancer
Description: as §1, §2

MCF7 = settings: Homo sapiens, Breast Cancer
Description: as §1, §2

SK-MEL-2 = settings: Homo sapiens, Melanoma
Description: as §1, §2

A549/ATCC = settings: Homo sapiens, Non-Small Cell Lung Cancer
Description: as §1, §2

CAKI-1 = settings: Homo sapiens, Renal Cancer
Description: as §1, §2

HCC-2998 = settings: Homo sapiens, Colon Cancer
Description: as §1, §2

HCT-116 = settings: Homo sapiens, Colon Cancer
Description: as §1, §2

786-0 = settings: Homo sapiens, Renal Cancer
Description: as §1, §2

O=C1C=C[C@H]2[C@@H]3C(=O)N(c4ccccc4)C(=O)[C@@H]3[C@@H]1N2Cc1ccccc1 (relative stereo) [Example 1, exo-11-Benzyl-4-phenyl-4,11-diazatricyclo[5.3.1.0^2,6]undec-9-ene-3,5,8-trione Trifluoroacetate]
GI50 (OVCAR-8): 2.88 µM
GI50 (SR): 1.87 µM
GI50 (OVCAR-3): 3.44 µM
GI50 (UACC-257): 3.22 µM
GI50 (NCI-H23): 5.37 µM
GI50 (RPMI-8226): 1.59 µM
GI50 (KM12): 2.56 µM
GI50 (DU-145): 9.66 µM
GI50 (HOP-62): 1.38 µM
GI50 (LOX IMVI): 1.61 µM
GI50 (SF-295): 6.41 µM
GI50 (SF-539): 1.66 µM
GI50 (SNB-19): 6.04 µM
GI50 (ACHN): 3.36 µM
GI50 (HL-60(TB)): 1.17 µM
GI50 (COLO 205): 5.47 µM
GI50 (PC-3): 4.68 µM
GI50 (A498): 8.57 µM
GI50 (SK-OV-3): 13.2 µM
GI50 (NCI-H460): 3.49 µM
GI50 (SF-268): 3.34 µM
GI50 (UACC-62): 2.01 µM
GI50 (SK-MEL-28): 3.01 µM
GI50 (MDA-MB-435): 2.72 µM
GI50 (U251): 2.29 µM
GI50 (SN12C): 1.64 µM
GI50 (HT29): 1.79 µM
GI50 (SW-620): 1.86 µM
GI50 (MALME-3M): 4.62 µM
GI50 (OVCAR-4): 5.53 µM
GI50 (HOP-92): 3.66 µM
GI50 (MDA-MB-231/ATCC): 5.45 µM
GI50 (MCF7): 3.19 µM
GI50 (SK-MEL-2): 4.37 µM
GI50 (A549/ATCC): 14.9 µM
GI50 (CAKI-1): 4.09 µM
GI50 (HCC-2998): 7.94 µM
GI50 (HCT-116): 1.56 µM
GI50 (786-0): 1.69 µM
